{"source": "paper PMC2929754", "about": "(The Journal of parasitology, 2009)", "molecular_target": "T. cruzi lipoamide dehydrogenase (TcLipDH) (Trypanosoma cruzi, UniProt P90597)", "sequence (P90597 whole entry)": "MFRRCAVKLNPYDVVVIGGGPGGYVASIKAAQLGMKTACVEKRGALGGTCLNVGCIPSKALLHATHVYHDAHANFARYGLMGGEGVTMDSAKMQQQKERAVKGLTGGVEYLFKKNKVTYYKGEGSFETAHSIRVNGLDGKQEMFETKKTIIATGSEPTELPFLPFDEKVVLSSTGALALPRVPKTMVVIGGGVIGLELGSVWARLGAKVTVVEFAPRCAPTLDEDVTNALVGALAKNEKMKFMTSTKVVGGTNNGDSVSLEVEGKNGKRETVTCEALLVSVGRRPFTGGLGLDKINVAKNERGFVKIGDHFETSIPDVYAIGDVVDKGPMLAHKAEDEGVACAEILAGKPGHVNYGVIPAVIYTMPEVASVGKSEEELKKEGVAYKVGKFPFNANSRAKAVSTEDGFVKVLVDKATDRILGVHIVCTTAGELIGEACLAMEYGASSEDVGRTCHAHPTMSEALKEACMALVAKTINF", "test": "Recombinant enzyme kinetics", "assay_type": "biochemical", "data": [{"smiles": "O=C1C(c2ccccc2)=C(c2ccccc2)C(=O)c2ccccc21", "note": "[DPNQ, 2,3-diphenyl-1,4-naphthoquinone]", "values": [{"measurement": "Ki", "value": 29, "unit": "µM"}]}]}
